Values of other authors in US9309233B2, “Compositions and methods for the treatment of blood clotting disorders” (CELLIX BIO PRIVATE LIMITED, priority 2012, dated 2016).

Row | SMILES | oral bioavailability (oral) | time at which plasma levels peak (plasma levels of dabigatran after drug administration (dabigatran etexilate))
1 | CCCCCCOC(=O)NC(=N)c1ccc(NCc2nc3cc(C(=O)N(CCC(=O)OCC)c4ccccn4)ccc3n2C)cc1 [Dabigatran etexilate] | ≈ 6% | –
2 | [H]/N=C(/N)c1ccc(NCc2nc3cc(C(=O)N(CCC(=O)O)c4ccccn4)ccc3n2C)cc1 [dabigatran] | – | ≈ 2 hours
